test system: 8×TBD luciferase reporter (YAP) in HEK293T cells; test: YAP Reporter Assay (8×TBD firefly luciferase reporter); format: cell-based; conditions: Homo sapiens, HEK-293T, 24 h, read-out: Firefly Luciferase IC50 (μM)
Protocol: HEK293T cells stably transfected with 8×TBD luciferase reporter and pRLTK in 384-well plates were treated with the test compounds, starting from 3 μM (final concentration in assay plate), 1:3 dilution, and 10 points in quadruplicates. Post 24-hr incubation with compounds at 37° C. and 5% CO2, cells were lysed and 8×TBD-driven firefly luciferase and control TK-driven renilla luciferase activities were measured using Promega Dual-Luciferase Reporter Assay System.
Reagents: The reagents used for this study are: DMEM: Invitrogen #11960077, Dual-Glo Luciferase Assay System: Promega-E2980, Puromycin Dihydrochloride: Invitrogen-A1113803, 384-well plate: PerkinElmer-6007480, L-GLUTAMINE: Invitrogen-25030164, Hygromycin B: Invitrogen-10687010, and Penicillin-Streptomycin: Merk-TMS-AB2-C
Media: The media used for this assay were: Culture Medium: DMEM+1 ug/mL puromycin+200 ug/mL hygromycin (with 10% FBS+1 mM L-glutamine); and Assay Medium: DMEM (with 10% FBS+1 mM L-glutamine+1×P/S).
Cell Plating: The appropriate media was warmed at 37° C. by water bath: Culture Medium, Assay Medium, 1*D-PBS, 0.05% trypsin-EDTA. The cells were trypsinized after removing all media, then washed with 1*sterile D-PBS and then with 2 ml 0.05% trypsin-EDTA. The cells were then incubated at RT for one minute. Then 10 ml/75 cm2 flask Assay Medium was added to each flask. Using a 10 ml pipette, the cells were then gently resuspended in the media, until the clumps completely disappeared. The cells were then transferred into 50 ml centrifuge tubes and were centrifuged at 800 rpm for 5 mins. The medium was removed and the cells were resuspended with Assay Medium. An aliquot of cells was used to count the cell density (cells/ml). The cell suspension was then diluted with Assay Medium to a concentration of 6×10^4 cells/ml. 50 ul cells suspension was then plated to 384-well plate (PerkinElmer-6007480), 3×10^3 cells/well and the cells were incubated in an incubator at 37° C., 5% CO2.
Compound Treatment: In the afternoon (incubation of the plate with 3-4 hrs), the test compounds were added by Echo, starting from 3 uM (final concentration in the assay plate), 1:3 dilution, 10 points, quadruplicates. The plate was placed at 37° C., 5% CO2 incubator for 24 hrs.
Detection: The Dual-Glo Luciferase Reagent was prepared by transferring the contents of one bottle of Dual-Glo Luciferase Buffer to one bottle of Dual-Glo Luciferase Substrate to create the Dual-Glo Luciferase Reagent. Mixing was performed by inversion until the substrate was thoroughly dissolved. After mixing, the reagent was aliquoted into 15 ml tubes. In the afternoon (24 hrs post compound treatment), the DMEM+medium in the 384 well plates were aspirated by Microplate Washer.
Measuring firefly luciferase activity: 20 ul Dual-Glo Luciferase Reagent was added to the 384-well plates. The plates were protected from light to prevent interference with the assay. The plates were shaken for 1 min followed centrifuging plates at 1000 rpm for 30 seconds. After waiting at least 10 minutes, the firefly luminescence was measured by Envision.
Measuring renilla luciferase activity: 20 ul Stop-Glo Reagent was added to the 384-well plates. The plates were shaken for 1 min and then centrifuged at 1000 rpm for 30 seconds. After waiting at least 10 minutes, the renilla luminescence was measured by Envision.
Compound IC50 and maximum inhibition on the firefly luciferase and renilla luciferase activities were reported separately.

Compound	IC50 [µM]
CC(C)NC(=O)c1cnc2c(Oc3ccc(C(F)(F)F)cc3)cccc2c1 [Compound 13, N-isopropyl-8-[4-(trifluoromethyl)phenoxy]quinoline-3-carboxamide]	< 0.1
C[C@H](NC(=O)c1ccc2c(Oc3ccc(C(F)(F)F)cc3)cccc2c1)C1CN(CCO)C1 [Compound 128, (S)—N-(1-(1-(2-hydroxyethyl)azetidin-3-yl)ethyl)-5-(4-(trifluoromethyl)phenoxy)-2-naphthamide]	0.1 to 1
CC(C)NC(=O)c1ccc2c(Oc3ccc(Cl)cc3)cccc2c1 [Compound 1, 5-(4-chlorophenoxy)-N-isopropyl-2-naphthamide]	< 0.1

same assay, conditions: Homo sapiens, HEK-293T; HEK293T cells stably transfected with 8×TBD luciferase reporter and pRLTK; 24-hr incubation; firefly luciferase activity; read-out: Firefly Luciferase IC50

Compound	IC50 [µM]
O=C(NC(CCO)c1ccccn1)c1ccc2c(Oc3ccc(C(F)(F)F)cc3)cccc2c1 (stereo not drawn) [Compound 94, N-(3-hydroxy-1-(pyridin-2-yl)propyl)-5-(4-(trifluoromethyl)phenoxy)-2-naphthamide]	< 0.1
O=C(N[C@@H](CCO)c1ccccn1)c1ccc2c(Oc3ccc(C(F)(F)F)cc3)cccc2c1 [Compound 110, (S)—N-(3-hydroxy-1-(pyridin-2-yl)propyl)-5-(4-(trifluoromethyl)phenoxy)-2-naphthamide]	< 0.1
C[C@H](NC(=O)c1ccc2c(Oc3ccc(C(F)(F)F)cc3)cccc2c1)C1CN(C2CC2)C1 [Compound 136, (S)—N-(1-(1-cyclopropylazetidin-3-yl)ethyl)-5-(4-(trifluoromethyl)phenoxy)-2-naphthamide]	1 to 3
CC(C)NC(=O)c1ccc2c(Oc3ccc(C(F)(F)F)cc3)nccc2c1 [Compound 11, N-isopropyl-1-[4-(trifluoromethyl)phenoxy]isoquinoline-6-carboxamide]	< 0.1
CC(C)NC(=O)c1ccc2c(Oc3ccc(F)c(F)c3)cccc2c1 [Compound 8, 5-(3,4-difluorophenoxy)-N-isopropyl-2-naphthamide]	< 0.1
N#CNC(=O)c1ccc2c(Oc3ccc(C(F)(F)F)cc3)cccc2c1 [Compound 86, N-cyano-5-[4-(trifluoromethyl)phenoxy]naphthalene-2-carboxamide]	0.1 to 1
O=C(N[C@H](CO)C1CNC1)c1ccc2c(Oc3ccc(C(F)(F)F)cc3)cccc2c1 [Compound 142, (S)—N-(1-(azetidin-3-yl)-2-hydroxyethyl)-5-(4-(trifluoromethyl)phenoxy)-2-naphthamide]	0.1 to 1
C[C@H](NC(=O)c1ccc2c(Oc3ccc(C(F)(F)F)cc3)cccc2c1)c1ncc[nH]1 [Compound 63, (S)—N-(1-(1H-imidazol-2-yl)ethyl)-5-(4-(trifluoromethyl)phenoxy)-2-naphthamide]	0.1 to 1
CC(C)N1CC([C@@H](C)NC(=O)c2ccc3c(Oc4ccc(C(F)(F)F)cc4)cccc3c2)C1 [Compound 133, (R)—N-(1-(1-isopropylazetidin-3-yl)ethyl)-5-(4-(trifluoromethyl)phenoxy)-2-naphthamide]	1 to 3
CCN1CC([C@@H](C)NC(=O)c2ccc3c(Oc4ccc(C(F)(F)F)cc4)cccc3c2)C1 [Compound 131, (R)—N-(1-(1-ethylazetidin-3-yl)ethyl)-5-(4-(trifluoromethyl)phenoxy)-2-naphthamide]	0.1 to 1
O=C(NC(CCO)CCO)c1ccc2c(Oc3ccc(C(F)(F)F)cc3)cccc2c1 [Compound 121, N-(1,5-dihydroxypentan-3-yl)-5-(4-(trifluoromethyl)phenoxy)-2-naphthamide]	< 0.1
C[C@@H](NC(=O)c1ccc2c(Oc3ccc(C(F)(F)F)cc3)cccc2c1)C1CC1 [Compound 38, (R)—N-(1-cyclopropylethyl)-5-(4-(trifluoromethyl)phenoxy)-2-naphthamide]	< 0.1
C[C@H](NC(=O)c1ccc2c(Oc3ccc(C(F)(F)F)cc3)cccc2c1)C1CN(CCF)C1 [Compound 129, (S)—N-(1-(1-(2-fluoroethyl)azetidin-3-yl)ethyl)-5-(4-(trifluoromethyl)phenoxy)-2-naphthamide]	1 to 3
C[C@H](CO)NC(=O)c1ccc2c(Oc3ccc(C(F)(F)F)cc3)nccc2c1 [Compound 12, N-[(1R)-2-hydroxy-1-methyl-ethyl]-1-[4-(trifluoromethyl)phenoxy]isoquinoline-6-carboxamide]	< 0.1
C[C@H](CCO)NC(=O)c1ccc2c(Oc3ccc(C(F)(F)F)cc3)cccc2c1 [Compound 114, (R)—N-(4-hydroxybutan-2-yl)-5-(4-(trifluoromethyl)phenoxy)-2-naphthamide]	< 0.1
C[C@@H](NC(=O)c1ccc2c(Oc3ccc(C(F)(F)F)cc3)cccc2c1)c1cccc(N)n1 [Compound 66, (R)—N-(1-(6-aminopyridin-2-yl)ethyl)-5-(4-(trifluoromethyl)phenoxy)-2-naphthamide]	< 0.1
C[C@H](NC(=O)c1ccc2c(Oc3ccc(C(F)(F)F)cc3)cccc2c1)c1cccc(N(C)C)n1 [Compound 76, (S)—N-(1-(6-(dimethylamino)pyridin-2-yl)ethyl)-5-(4-(trifluoromethyl)phenoxy)-2-naphthamide]	0.1 to 1
C[C@@H](NC(=O)c1ccc2c(Oc3ccc(C(F)(F)F)cc3)cccc2c1)c1ccccn1 [Compound 27, N-[(1R)-1-(2-pyridyl)ethyl]-5-[4-(trifluoromethyl)phenoxy]naphthalene-2-carboxamide]	0.1 to 1
CS(=O)(=O)NC(=O)c1ccc2c(Oc3ccc(F)c(F)c3)cccc2c1 [Compound 10, 5-(3,4-difluorophenoxy)-N-(methylsulfonyl)-2-naphthamide]	< 0.1
COC[C@H](C)NC(=O)c1ccc2c(Oc3ccc(C(F)(F)F)cc3)cccc2c1 [Compound 28, (S)—N-(1-methoxypropan-2-yl)-5-(4-(trifluoromethyl)phenoxy)-2-naphthamide]	< 0.1
C[C@H](NC(=O)c1ccc2c(Oc3ccc(C(F)(F)F)cc3)cccc2c1)C1(O)CNC1 [Compound 138, (S)—N-(1-(3-hydroxyazetidin-3-yl)ethyl)-5-(4-(trifluoromethyl)phenoxy)-2-naphthamide]	0.1 to 1
NS(=O)(=O)c1ccc2c(Oc3ccc(C(F)(F)F)cc3)cccc2c1 [Compound 117, 5-(4-(trifluoromethyl)phenoxy)naphthalene-2-sulfonamide]	< 0.1
C[C@@H](NC(=O)c1ccc2c(Oc3ccc(C(F)(F)F)cc3)cccc2c1)c1c[nH]cn1 [Compound 48, (R)—N-(1-(1H-imidazol-4-yl)ethyl)-5-(4-(trifluoromethyl)phenoxy)-2-naphthamide]	< 0.1
CC(C)NC(=O)c1ccc2c(Oc3ccc(C(F)(F)F)cc3)cccc2c1 [Compound 4, N-isopropyl-5-(4-(trifluoromethyl)phenoxy)-2-naphthamide]	< 0.1
CNCCCNC(=O)c1ccc2c(Oc3ccc(C(F)(F)F)cc3)cccc2c1 [Compound 34, N-(3-(methylamino)propyl)-5-(4-(trifluoromethyl)phenoxy)-2-naphthamide]	< 0.1
CC(C)NC(=O)c1ccc2c(Oc3ccc(C(F)(F)F)cc3)ccnc2c1 [Compound 67, N-isopropyl-4-(4-(trifluoromethyl)phenoxy)quinoline-7-carboxamide]	0.1 to 1
CN(C#N)CCNC(=O)c1ccc2c(Oc3ccc(C(F)(F)F)cc3)cccc2c1 [Compound 31, N-(2-(N-methylcyanamido)ethyl)-5-(4-(trifluoromethyl)phenoxy)-2-naphthamide]	< 0.1

From patent US11420935B2, “Bicyclic compounds” (Vivace Therapeutics, Inc., priority 2019, dated 2022)
